Experimental findings from ChEMBL document CHEMBL1201862, “PubChem BioAssay data set” (2004) are described below.

Several values for one entry are separate records, joined by “and”; a condition that tells them apart may be missing. Equal entries are not always repeated.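 Results reflect a 48-hour exposure of cells in 96-well plates to compound at five concentrations. GI50: concentration for 50% inhibition of growth.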 Activity calls are given as the source filed them. No stated cut-off is given here; in the data, active = GI50 up to about 1.1 µM and inactive = higher. Square brackets hold non-standard residues; d marks the D form. Peptide text beside a SMILES is read from it. pGlu = O=C1CC[C@@H](C(=O)O)N1; Thz = O=C(O)[C@@H]1CSCN1 Bounds are passed on as bounds.

For orientation: GI50 means the concentration at which growth is held to half of that of the control.

Test systems include BT-549; DLD-1; DMS-273; HOP-18; KM-20L2; M19-MEL; SNB-78; XF498; RXF 631.
Holding throughout (experiment): DTP human tumour cell line panel, 48 h

For `CSc1nc(O)c(C#N)c(-c2ccc(Cl)cc2)n1`, the GI50 in the experiment on BT-549 was > 100 µM (inactive).
For the molecule `CC1CC2C3CCC4=CC(=O)C=CC4(C)C3(F)C(O)CC2(C)C1(O)C(=O)CO.Cc1cc(NS(=O)(=O)c2ccc(/N=N\c3cc(/N=N/c4ccc(S(=O)(=O)Nc5cc(C)nc(C)n5)cc4)c(OC(=O)C(Cl)Cl)c4cccc(NC(=O)C(Cl)Cl)c34)cc2)nc(C)n1`, the GI50 with DLD-1 was 18 µM (inactive); in the experiment on DMS-273, 21.5 µM (inactive); in the experiment on HOP-18, 18.8 µM (inactive); with KM-20L2, 25.6 µM (inactive); with M19-MEL it was 30.8 µM (inactive); in the experiment on SNB-78 it was 33.1 µM (inactive).
As to `CCN(CC)c1c(C(=O)/C=C/c2ccccc2)c(-c2ccccc2)nn(C)c1=O`, the GI50 in the experiment with DLD-1 is 3.27 µM (inactive); with DMS-273 it was 4.98 µM (inactive); in the experiment on KM-20L2 it was 5.06 µM (inactive); with M19-MEL it was > 100 µM (inactive); in the experiment with XF498 it was 11.2 µM (inactive).
On to `C=C(Cl)C(Cl)(CBr)CCC(Br)C(C)(C)Cl` (stereo not drawn), for which, in the experiment on BT-549, the GI50 was 2.05 µM (inactive) and 1.04 µM (active) and 1.79 µM (inactive).
Turning to `CCC1OCCN1C(C)C` (stereo not drawn), the GI50 with DLD-1 is 92 µM (inactive); with DMS-273 it was 69.2 µM (inactive); in the experiment on KM-20L2, > 100 µM (inactive); in the experiment with M19-MEL it was 71.4 µM (inactive); in the experiment with SNB-78, > 100 µM (inactive).
In the case of `CC(C)C1(NC(=O)C2CC3c4cccc5[nH]cc(c45)CC3N(C)C2)OC2(O)C3CCCN3C(=O)C(Cc3ccccc3)N2C1=O` (stereo not drawn), in the experiment with BT-549, the GI50 was 55 µM (inactive).
The same measure, in the same setting: then `COC(=O)C1=C(OC(=O)/C(=C/c2ccccc2)c2ccc(Cl)cc2)C(C(=O)OC)[C@@]2(O)[C@@H](C(=O)OC)[C@H](C)C[C@@H]1[C@@H]2C(=O)OC` (stereo partly drawn), with > 100 µM (inactive); and `O=C(/C=C/c1cccs1)c1cccc(C(=O)/C=C/c2cccs2)n1`, with 42.8 µM (inactive); and `COC(=O)c1ccc(C)cc1C1CN=NC12Cc1cccc(C)c1C2=O` (stereo not drawn), with 25.6 µM (inactive).
On the same count and under the same terms, then `CCOc1cc(CCNC)c2c(ccc3ccc(OC)c(O)c32)c1OC`, with 16.3 µM (inactive); and `Cc1cc(C(O)CNC(C)CCn2cnc3c2c(=O)n(C)c(=O)n3C)ccc1O` (stereo not drawn), with > 100 µM (inactive).
With `C[C@]12Cc3cn[nH]c3C(=O)C1CC[C@@H]1C2CC[C@@]2(C)C1CC[C@@H]2O` (stereo partly drawn), the GI50 in the experiment on DMS-273, with HOP-18, with KM-20L2, with SNB-78 and in the experiment on XF498 was > 100 µM (inactive) in each case.
As to `COC(=O)/N=C(\NC(=O)OC)Nc1ccc(Oc2ccccc2)cc1NC=O`, the GI50 in the experiment with DLD-1 is 0.536 µM (active); in the experiment on HOP-18, > 100 µM (inactive); with KM-20L2, 0.242 µM (active); in the experiment on M19-MEL, 0.312 µM (active); in the experiment on XF498, 0.369 µM (active).
On to `COc1ccc(-c2c(C#N)c(N)nc(Sc3ccccc3N)c2C#N)cc1`, for which, in the experiment with BT-549, the GI50 is 9.35 µM (inactive).
In the case of `C=C1C2CCCC1C1(S(C)(=O)=O)CCCCC21O` (stereo not drawn), the GI50 with DLD-1, in the experiment on DMS-273, in the experiment on HOP-18, in the experiment on KM-20L2, in the experiment with M19-MEL and in the experiment with SNB-78 was > 100 µM (inactive) each time.
As to `O=C(O)Cc1ccc(-n2nnc3c(=O)[nH][nH]c(=O)c32)cc1`, the GI50 in the experiment on BT-549 is > 100 µM (inactive).
As for `O=C(NCCc1n[nH]c2c1C(=O)C=C(Nc1ccccc1)C2=O)OCc1ccccc1`, in the experiment on BT-549, the GI50 was > 100 µM (inactive).
Regarding `CN(C(=O)Nc1ccc(Cl)c(Cl)c1)C1CCCC[C@@H]1N1CCCC1` (stereo partly drawn), in the experiment on BT-549, the GI50 is 22.4 µM (inactive).
`Clc1cc(OCC23CC4CC(CC(C4)C2)C3)nc(OCC23CC4CC(CC(C4)C2)C3)n1`: the GI50 with BT-549 was > 100 µM (inactive).
On the same count and under the same terms, then `N#Cc1cc2c(cc1C#N)SCCSCCCSCCS2`, with 15 µM (inactive); and `Cc1ccc2nc(Cl)c(/C=N/N3C(=O)/C(=C/c4cccc([N+](=O)[O-])c4)N=C3c3ccccc3)cc2c1`, with > 100 µM (inactive).
Still for that read-out and setting: then `O=C(NNC(=S)Nc1ccccc1)C12CC3CC(CC(C3)C1)C2`, with 9.1 µM (inactive); and `Cc1c2c(c(C)n1-c1ccccc1)C(=O)N(CCSC(=N)N)C2=O`, with > 100 µM (inactive); and `Cc1n[nH]c(C(F)(F)F)c1/N=N/N1CCOCC1`, with 12.4 µM (inactive).
Same read-out and setting: then `O=C1C=C2C(=NC34CCCCC3C(c3ccccc3)C3=C(c5ccccc5CC3)N24)c2ccccc21` (stereo not drawn), with > 10 µM (inactive); and `O=C(O)C[C@@H]1[C@@H](O)[C@@H](O)CN2C(=O)c3ccccc3[C@H]12`, with > 100 µM (inactive); and `COc1cccc(N2N=C3c4ccccc4-n4c(nc5ccccc54)C3C2N)c1` (stereo not drawn), with > 100 µM (inactive).
With `COc1ccc(C2Oc3c(cccc3-c3c(-c4ccc(O)cc4)oc4cc(O)cc(O)c4c3=O)C(=O)C2O)cc1O` (stereo not drawn), the GI50 in the experiment with BT-549 was > 100 µM (inactive).
On to `CCN(CC)CCNc1ccc2nc(C)n3c4ccc(O)cc4c(=O)c1c23`, for which the GI50 in the experiment on DLD-1 was 0.371 µM (active); in the experiment with DMS-273 it was 0.37 µM (active); with M19-MEL, 3.49 µM (inactive); in the experiment on RXF 631, 0.331 µM (active).
Regarding `CC(C)(Oc1ccc(C(=O)c2ccc(Cl)cc2)cc1Cl)C(=O)N1CCN(c2ccccc2)CC1`, the GI50 in the experiment with DLD-1 is > 100 µM (inactive); with DMS-273, 55.7 µM (inactive); in the experiment on HOP-18, > 100 µM (inactive); in the experiment with KM-20L2, > 100 µM (inactive); with M19-MEL it was > 100 µM (inactive); with SNB-78 it was > 100 µM (inactive). The GI50 in the experiment on XF498 was 52.1 µM (inactive).
Take `O=C(c1ccccc1)c1ccc(N2C(=O)/C(=C/c3cccc(Oc4ccccc4)c3)N=C2c2ccccc2)c(N2C(=O)/C(=C/c3cccc(Oc4ccccc4)c3)N=C2c2ccccc2)c1`: the GI50 in the experiment on BT-549 is 24.7 µM (inactive).
For `Cc1ccc(C(=O)NC2CCCCC2)cc1/N=N/N(C)C`, the GI50 with DLD-1, in the experiment on DMS-273, in the experiment with KM-20L2, with M19-MEL and in the experiment with SNB-78 was > 100 µM (inactive) in each case.
Consider `CC(CCc1ccccc1)NCC(O)n1c(/N=N/N(C)C)nc2c1c(=O)n(C)c(=O)n2C` (stereo not drawn), for which, in the experiment on BT-549, the GI50 was > 100 µM (inactive).
Regarding `Cc1c(/C=N/NC(=S)Nc2ccc([N+](=O)[O-])cc2)c(=O)n(-c2ccccc2)n1C`, in the experiment with BT-549, the GI50 is 15.7 µM (inactive).
Still for that read-out and setting: the figure for `CCO/C(=N/S(=O)(=O)C(F)(F)F)N(C(C)C)C(C)C` is > 100 µM (inactive).
Take `O=C(O)/C(Cl)=C(\Cl)C(=O)Nc1ccc(Cl)c(Cl)c1Cl`: the GI50 in the experiment with DLD-1 is 24.5 µM (inactive); in the experiment with DMS-273, 21 µM (inactive); with HOP-18, 16.3 µM (inactive); in the experiment on KM-20L2, 23.2 µM (inactive); in the experiment with M19-MEL, 16.8 µM (inactive); in the experiment on SNB-78 it was 28.4 µM (inactive).
For the molecule `OCCCCCCOc1ccc(-c2cc(-c3ccccn3)nc(-c3ccccn3)c2)cc1`, the GI50 in the experiment with BT-549 is 0.149 µM (active); in the experiment with DLD-1 it was 0.169 µM (active); in the experiment with DMS-273, 0.211 µM (active); in the experiment on HOP-18 it was 0.182 µM (active); in the experiment on KM-20L2 it was 0.0897 µM (active); with M19-MEL, 0.253 µM (active). The concentration for 50% growth inhibition (GI50) with SNB-78 is 0.524 µM (active); with XF498 it was 1.51 µM (inactive).
With `CC1=C(C#N)C(=C(C#N)C#N)OC1(C)Cc1ccccc1` (stereo not drawn), the GI50 in the experiment on BT-549 was 35.1 µM (inactive).
On the same count and under the same terms, the figure for `CCC(=O)O[C@H]1CC[C@H]2[C@@H]3CCC4=C/C(=N/OC(=O)c5cccc6cc7ccccc7nc56)CC[C@]4(C)[C@H]3CC[C@]12C` is 63.8 µM (inactive).
As for `CC(C)c1cccc(C(C)C)c1NC(=O)/C(Cc1nc2ccc(Cl)cc2nc1O)=N\NC(=O)C[N+](C)(C)C`, the GI50 in the experiment on DLD-1, with KM-20L2, in the experiment with M19-MEL and in the experiment on RXF 631 was > 100 µM (inactive) each time.
Take `CSc1nc(SC)c2c(C)cn(C3OC(C)C(O)C(O)C3O)c2n1` (stereo not drawn): the GI50 in the experiment with BT-549 is 39.2 µM (inactive).
Regarding `COC(=O)C1=C(C(=O)OC)N(c2ccncc2)C(c2ccco2)=CC1c1ccccc1[N+](=O)[O-]` (stereo not drawn), the GI50 in the experiment on BT-549 is 6.7 µM (inactive).
Consider `CC(N)C(=O)OCN1C(=O)C2C3C=CC(C2C1=O)C1C2C(=O)N(COC(=O)C(C)N)C(=O)C2C31` (stereo not drawn), for which the GI50 in the experiment with DLD-1 was 24.5 µM (inactive); in the experiment on DMS-273 it was 18.5 µM (inactive); with HOP-18, > 100 µM (inactive); in the experiment on KM-20L2, 28.2 µM (inactive); in the experiment on M19-MEL, 23.6 µM (inactive); in the experiment with SNB-78, 57 µM (inactive). For the same molecule, the GI50 in the experiment with XF498 is 19 µM (inactive).
`CCn1c(-c2ccccc2)nc2c1C(=O)c1ccccc1C2=O`: the GI50 with BT-549 was 24.9 µM (inactive).
Regarding `CC(=O)NNc1nc(C)c(C(/C=C/c2ccc([N+](=O)[O-])cc2)=N/N)s1`, in the experiment on BT-549, the GI50 was > 100 µM (inactive).
Same read-out and setting: the figure for `N#Cc1nc(-c2cc([N+](=O)[O-])cc([N+](=O)[O-])c2)oc1N` is > 10 µM (inactive); for `COc1ccc2c(c1)/C(=C\c1c(Cl)nc3sc(C)cn13)C(=O)N2` it is 5.21 µM (inactive).
In the case of `Cc1cc(C)c(O)c(CN2CCN(C(C)C)CCN(C(C)C)CC2)c1`, in the experiment on BT-549, the GI50 is 22 µM (inactive).
Still for that read-out and setting: the figure for `CC1(C)CCC[C@@]2(C)C1CC[C@@]1(CO)O[C@H](C3=CC(=O)OC3O)C[C@H]12` (stereo partly drawn) is 8.26 µM (inactive).
Turning to `CCN(CC)CCNc1ccc2nnn3c4ccc(O)cc4c(=O)c1c23`, the GI50 in the experiment on BT-549 was 12.7 µM (inactive); in the experiment with DLD-1 it was 2.09 µM (inactive); in the experiment with HOP-18 it was 20.5 µM (inactive); in the experiment with KM-20L2 it was 4.37 µM (inactive); in the experiment on SNB-78, 5.89 µM (inactive).
With `COc1ccc(-c2oc3cc(OC)c(OC)c(O)c3c(=O)c2OC)cc1`, the GI50 in the experiment with BT-549 was 18 µM (inactive).
For `NCCCNCCCCN1CC1`, the GI50 with BT-549 was 5.4 µM (inactive).
In the case of `COc1ccc2cc1Oc1ccc(cc1)C[C@H]1c3cc(c(OC)cc3CCN1C)Oc1c(OC)c(OC)cc3c1[C@H](C2)N(C)CC3` [FANCHININ], the GI50 is 9.29 µM (inactive) in the experiment on DLD-1; 6.31 µM (inactive) with DMS-273; 9.42 µM (inactive) in the experiment on HOP-18; 3.8 µM (inactive) in the experiment with KM-20L2; 9.44 µM (inactive) in the experiment on SNB-78; 10.6 µM (inactive) with XF498.
`O=C1CC[C@@H](C(=O)N2CSC[C@H]2C(=O)O)N1` [PIDOTIMOD] ([pGlu]-[Thz]-OH): the GI50 with BT-549 was > 100 µM (inactive).
